Key:
[1] = biological target: Bile salt export pump (Homo sapiens, UniProt O95342); assay type: functional
[2] = biological target: T1, Adenosine receptor A1 (Homo sapiens, UniProt P30542)
T1 sequence (P30542 whole entry): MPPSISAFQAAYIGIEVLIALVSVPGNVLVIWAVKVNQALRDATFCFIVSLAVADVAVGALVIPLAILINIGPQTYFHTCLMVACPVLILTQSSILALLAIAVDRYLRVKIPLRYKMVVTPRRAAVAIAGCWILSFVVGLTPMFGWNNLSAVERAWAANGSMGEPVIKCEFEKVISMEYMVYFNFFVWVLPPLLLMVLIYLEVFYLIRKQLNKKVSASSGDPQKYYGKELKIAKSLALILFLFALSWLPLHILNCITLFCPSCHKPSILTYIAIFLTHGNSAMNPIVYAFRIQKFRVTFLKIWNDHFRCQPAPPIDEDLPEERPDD

[3] = biological target: T2, Alpha-2A adrenergic receptor (Homo sapiens, UniProt P08913); assay type: functional, cell-based
T2 sequence (P08913 whole entry): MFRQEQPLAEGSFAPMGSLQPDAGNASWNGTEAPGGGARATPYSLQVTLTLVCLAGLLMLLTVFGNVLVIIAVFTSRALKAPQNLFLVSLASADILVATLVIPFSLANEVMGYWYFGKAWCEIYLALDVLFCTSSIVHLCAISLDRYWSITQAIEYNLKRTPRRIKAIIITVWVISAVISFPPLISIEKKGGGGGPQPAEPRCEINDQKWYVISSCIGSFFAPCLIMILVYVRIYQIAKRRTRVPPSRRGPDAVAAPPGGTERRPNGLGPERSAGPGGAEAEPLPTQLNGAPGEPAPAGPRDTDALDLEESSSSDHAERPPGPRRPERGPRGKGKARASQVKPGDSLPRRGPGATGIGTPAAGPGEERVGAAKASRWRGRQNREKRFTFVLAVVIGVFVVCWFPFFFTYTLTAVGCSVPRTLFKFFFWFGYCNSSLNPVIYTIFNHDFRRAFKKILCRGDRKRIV

[4] = biological target: T3, Alpha-2C adrenergic receptor (Homo sapiens, UniProt P18825); assay type: functional
T3 sequence (P18825 whole entry): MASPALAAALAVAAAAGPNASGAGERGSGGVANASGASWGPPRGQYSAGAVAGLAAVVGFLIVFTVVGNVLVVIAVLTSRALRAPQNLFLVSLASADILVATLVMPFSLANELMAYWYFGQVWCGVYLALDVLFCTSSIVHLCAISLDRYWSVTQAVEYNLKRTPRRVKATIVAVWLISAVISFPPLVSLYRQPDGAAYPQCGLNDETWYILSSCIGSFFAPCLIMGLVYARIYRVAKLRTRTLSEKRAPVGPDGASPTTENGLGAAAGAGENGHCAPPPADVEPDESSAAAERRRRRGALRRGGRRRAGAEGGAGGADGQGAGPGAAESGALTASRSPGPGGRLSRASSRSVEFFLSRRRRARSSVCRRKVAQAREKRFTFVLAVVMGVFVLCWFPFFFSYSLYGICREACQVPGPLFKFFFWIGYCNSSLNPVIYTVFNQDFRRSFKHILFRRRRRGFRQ

[5] = biological target: T4, Cholecystokinin receptor type A (Homo sapiens, UniProt P32238)
T4 sequence (P32238 whole entry): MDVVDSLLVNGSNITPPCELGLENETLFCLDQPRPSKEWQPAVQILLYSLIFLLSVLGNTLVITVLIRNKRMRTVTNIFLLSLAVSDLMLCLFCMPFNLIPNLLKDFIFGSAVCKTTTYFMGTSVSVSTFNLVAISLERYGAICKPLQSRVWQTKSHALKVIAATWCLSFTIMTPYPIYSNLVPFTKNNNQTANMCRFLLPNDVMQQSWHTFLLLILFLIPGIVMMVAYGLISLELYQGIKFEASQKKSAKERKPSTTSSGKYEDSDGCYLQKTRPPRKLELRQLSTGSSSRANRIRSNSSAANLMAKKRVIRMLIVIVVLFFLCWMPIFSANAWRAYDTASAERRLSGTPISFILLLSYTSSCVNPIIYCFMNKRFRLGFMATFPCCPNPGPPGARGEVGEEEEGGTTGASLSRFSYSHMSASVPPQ

[6] = biological target: D(1A) dopamine receptor (Homo sapiens, UniProt P21728); assay type: functional, cell-based
[7] = biological target: Gamma-aminobutyric acid receptor subunit alpha-1 (Rattus norvegicus, UniProt P62813); assay type: functional
[8] = biological target: Motilin receptor (Homo sapiens, UniProt O43193)
[9] = biological target: T5, Prostaglandin G/H synthase 1 (Rattus norvegicus, UniProt Q63921); assay type: functional
T5 sequence (Q63921 whole entry): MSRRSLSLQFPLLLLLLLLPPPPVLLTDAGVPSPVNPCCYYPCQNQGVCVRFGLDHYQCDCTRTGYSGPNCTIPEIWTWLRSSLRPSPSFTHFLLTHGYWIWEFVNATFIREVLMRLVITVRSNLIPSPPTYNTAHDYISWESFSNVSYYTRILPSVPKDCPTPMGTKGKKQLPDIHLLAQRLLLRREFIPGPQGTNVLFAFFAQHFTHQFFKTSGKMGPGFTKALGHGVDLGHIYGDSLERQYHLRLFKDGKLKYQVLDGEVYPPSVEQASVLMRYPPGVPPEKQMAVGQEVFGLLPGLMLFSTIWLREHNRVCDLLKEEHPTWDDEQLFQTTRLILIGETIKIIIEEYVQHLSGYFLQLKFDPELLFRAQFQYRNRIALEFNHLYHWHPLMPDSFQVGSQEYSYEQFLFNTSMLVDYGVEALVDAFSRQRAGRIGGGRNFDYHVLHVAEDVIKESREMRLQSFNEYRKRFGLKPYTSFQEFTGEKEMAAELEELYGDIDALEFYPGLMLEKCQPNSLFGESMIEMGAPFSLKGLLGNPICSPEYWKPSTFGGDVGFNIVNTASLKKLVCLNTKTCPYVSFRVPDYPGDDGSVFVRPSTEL

[10] = biological target: Sodium-dependent dopamine transporter (Homo sapiens, UniProt Q01959)
[11] = biological target: Sodium-dependent noradrenaline transporter (Homo sapiens, UniProt P23975)
[12] = biological target: cGMP-inhibited 3',5'-cyclic phosphodiesterase 3A (Homo sapiens, UniProt Q14432); assay type: functional
[13] = biological target: D(3) dopamine receptor (Homo sapiens, UniProt P35462)
Further: assay procedure not described here.

D(1A) dopamine receptor, sequence (P21728 whole entry): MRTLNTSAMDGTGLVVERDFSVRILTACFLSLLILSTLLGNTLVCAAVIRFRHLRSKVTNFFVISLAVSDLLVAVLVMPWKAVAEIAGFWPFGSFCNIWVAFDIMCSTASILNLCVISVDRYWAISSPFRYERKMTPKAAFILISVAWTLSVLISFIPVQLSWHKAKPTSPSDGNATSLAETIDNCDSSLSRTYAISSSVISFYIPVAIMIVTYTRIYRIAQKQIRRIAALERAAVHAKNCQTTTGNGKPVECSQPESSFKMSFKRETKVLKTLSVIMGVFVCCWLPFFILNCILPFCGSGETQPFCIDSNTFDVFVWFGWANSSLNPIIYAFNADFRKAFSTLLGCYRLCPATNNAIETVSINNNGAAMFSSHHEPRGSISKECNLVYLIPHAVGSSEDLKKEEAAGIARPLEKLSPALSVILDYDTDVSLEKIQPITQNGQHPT
Sodium-dependent noradrenaline transporter, sequence (P23975 whole entry): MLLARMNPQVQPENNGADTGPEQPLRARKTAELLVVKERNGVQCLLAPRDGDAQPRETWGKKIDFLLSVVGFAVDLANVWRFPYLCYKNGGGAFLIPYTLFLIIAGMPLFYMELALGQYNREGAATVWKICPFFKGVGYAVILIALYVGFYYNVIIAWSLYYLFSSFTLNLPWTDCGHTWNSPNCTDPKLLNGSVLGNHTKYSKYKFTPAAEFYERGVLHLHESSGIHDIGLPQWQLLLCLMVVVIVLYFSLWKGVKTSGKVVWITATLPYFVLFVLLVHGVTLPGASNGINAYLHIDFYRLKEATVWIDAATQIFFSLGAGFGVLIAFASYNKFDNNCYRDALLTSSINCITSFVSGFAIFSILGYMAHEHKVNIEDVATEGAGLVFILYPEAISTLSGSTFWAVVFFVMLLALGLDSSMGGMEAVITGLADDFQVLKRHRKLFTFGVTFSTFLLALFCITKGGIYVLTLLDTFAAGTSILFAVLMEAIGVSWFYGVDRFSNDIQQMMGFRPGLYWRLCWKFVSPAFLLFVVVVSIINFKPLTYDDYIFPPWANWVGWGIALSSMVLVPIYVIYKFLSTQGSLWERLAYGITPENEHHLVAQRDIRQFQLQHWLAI
D(3) dopamine receptor, sequence (P35462 whole entry): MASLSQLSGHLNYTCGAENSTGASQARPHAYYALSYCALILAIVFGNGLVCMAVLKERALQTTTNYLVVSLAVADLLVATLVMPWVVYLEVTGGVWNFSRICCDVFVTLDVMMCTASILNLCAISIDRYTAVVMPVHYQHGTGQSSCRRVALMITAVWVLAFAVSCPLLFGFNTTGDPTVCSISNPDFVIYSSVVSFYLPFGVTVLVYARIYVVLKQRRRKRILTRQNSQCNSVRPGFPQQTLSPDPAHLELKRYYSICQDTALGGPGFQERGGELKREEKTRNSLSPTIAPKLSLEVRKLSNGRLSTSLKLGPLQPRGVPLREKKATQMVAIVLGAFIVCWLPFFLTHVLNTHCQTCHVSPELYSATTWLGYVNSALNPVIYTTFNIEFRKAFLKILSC
Sodium-dependent dopamine transporter, sequence (Q01959 whole entry): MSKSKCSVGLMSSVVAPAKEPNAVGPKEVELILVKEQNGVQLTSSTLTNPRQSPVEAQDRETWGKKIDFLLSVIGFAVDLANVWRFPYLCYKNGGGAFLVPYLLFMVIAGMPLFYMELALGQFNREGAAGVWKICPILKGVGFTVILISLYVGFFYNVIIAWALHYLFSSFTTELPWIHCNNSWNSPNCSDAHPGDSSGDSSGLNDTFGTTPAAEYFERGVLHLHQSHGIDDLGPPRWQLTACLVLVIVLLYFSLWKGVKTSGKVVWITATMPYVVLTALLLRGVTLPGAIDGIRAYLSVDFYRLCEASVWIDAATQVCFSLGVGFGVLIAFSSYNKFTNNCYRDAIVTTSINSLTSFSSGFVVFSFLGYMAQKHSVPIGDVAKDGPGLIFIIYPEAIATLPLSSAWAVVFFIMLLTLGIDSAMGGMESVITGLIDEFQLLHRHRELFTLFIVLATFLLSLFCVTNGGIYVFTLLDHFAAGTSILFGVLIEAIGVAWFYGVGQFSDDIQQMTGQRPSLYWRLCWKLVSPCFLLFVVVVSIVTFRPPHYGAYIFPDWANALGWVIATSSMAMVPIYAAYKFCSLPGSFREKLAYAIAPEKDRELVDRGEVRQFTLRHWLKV
Gamma-aminobutyric acid receptor subunit alpha-1, sequence (P62813 whole entry): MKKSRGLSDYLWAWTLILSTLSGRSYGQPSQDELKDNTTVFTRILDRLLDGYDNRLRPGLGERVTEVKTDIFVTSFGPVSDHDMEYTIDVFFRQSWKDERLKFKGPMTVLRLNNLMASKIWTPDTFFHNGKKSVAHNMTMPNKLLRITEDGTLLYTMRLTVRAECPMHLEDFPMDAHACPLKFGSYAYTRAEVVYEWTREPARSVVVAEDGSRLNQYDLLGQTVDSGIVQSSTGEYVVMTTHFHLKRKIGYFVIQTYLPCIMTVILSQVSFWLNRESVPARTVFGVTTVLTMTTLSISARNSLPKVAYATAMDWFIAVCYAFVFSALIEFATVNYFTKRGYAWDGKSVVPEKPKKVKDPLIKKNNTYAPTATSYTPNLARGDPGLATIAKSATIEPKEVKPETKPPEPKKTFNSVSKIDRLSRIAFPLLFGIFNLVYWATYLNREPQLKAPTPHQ
Motilin receptor, sequence (O43193 whole entry): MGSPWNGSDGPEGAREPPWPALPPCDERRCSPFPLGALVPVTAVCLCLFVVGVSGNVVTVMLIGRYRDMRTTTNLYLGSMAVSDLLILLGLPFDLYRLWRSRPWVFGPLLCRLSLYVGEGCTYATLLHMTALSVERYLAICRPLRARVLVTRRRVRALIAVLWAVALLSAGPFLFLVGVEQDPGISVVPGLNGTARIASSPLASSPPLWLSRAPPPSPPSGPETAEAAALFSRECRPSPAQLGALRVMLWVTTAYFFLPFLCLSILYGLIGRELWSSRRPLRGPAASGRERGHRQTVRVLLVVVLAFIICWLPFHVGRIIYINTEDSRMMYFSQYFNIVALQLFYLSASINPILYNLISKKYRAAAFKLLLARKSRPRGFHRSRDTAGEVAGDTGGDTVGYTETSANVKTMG
cGMP-inhibited 3',5'-cyclic phosphodiesterase 3A, sequence (Q14432 whole entry): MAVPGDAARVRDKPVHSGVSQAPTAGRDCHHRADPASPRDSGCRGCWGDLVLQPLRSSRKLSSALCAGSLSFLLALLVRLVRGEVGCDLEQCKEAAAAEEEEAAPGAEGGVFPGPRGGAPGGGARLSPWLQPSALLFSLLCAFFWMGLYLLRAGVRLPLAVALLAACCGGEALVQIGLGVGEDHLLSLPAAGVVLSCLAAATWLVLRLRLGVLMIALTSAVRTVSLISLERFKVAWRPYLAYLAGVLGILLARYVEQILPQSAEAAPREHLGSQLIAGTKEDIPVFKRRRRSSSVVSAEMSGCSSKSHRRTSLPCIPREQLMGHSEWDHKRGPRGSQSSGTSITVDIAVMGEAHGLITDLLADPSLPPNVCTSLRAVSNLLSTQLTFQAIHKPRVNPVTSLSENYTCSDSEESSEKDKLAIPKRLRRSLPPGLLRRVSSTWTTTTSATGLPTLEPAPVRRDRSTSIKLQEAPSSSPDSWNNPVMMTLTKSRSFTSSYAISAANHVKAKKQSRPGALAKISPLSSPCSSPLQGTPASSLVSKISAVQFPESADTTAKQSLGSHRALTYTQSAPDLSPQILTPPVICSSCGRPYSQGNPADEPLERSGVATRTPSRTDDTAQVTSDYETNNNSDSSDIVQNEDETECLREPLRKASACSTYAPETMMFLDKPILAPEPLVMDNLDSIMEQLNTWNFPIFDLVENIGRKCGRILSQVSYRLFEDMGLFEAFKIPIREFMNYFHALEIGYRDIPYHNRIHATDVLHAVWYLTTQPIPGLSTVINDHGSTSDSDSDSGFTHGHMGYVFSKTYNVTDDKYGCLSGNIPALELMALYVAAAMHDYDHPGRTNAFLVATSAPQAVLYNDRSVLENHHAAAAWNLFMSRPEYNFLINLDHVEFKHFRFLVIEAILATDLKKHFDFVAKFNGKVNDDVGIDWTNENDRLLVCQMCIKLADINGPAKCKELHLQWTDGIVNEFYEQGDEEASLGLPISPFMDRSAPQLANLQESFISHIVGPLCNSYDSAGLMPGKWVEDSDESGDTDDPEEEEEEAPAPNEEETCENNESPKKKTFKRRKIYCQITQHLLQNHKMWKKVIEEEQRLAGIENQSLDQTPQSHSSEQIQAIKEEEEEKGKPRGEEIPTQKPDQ

Row | Compound | AC50 [1] [µM] | AC50 [2] [µM] | AC50 [3] [µM] | AC50 [4] [µM] | AC50 [5] [µM] | AC50 [6] [µM] | AC50 [7] [µM] | AC50 [8] [µM] | AC50 [9] [µM] | AC50 [10] [µM] | AC50 [11] [µM] | AC50 [12] [µM] | AC50 [13] [µM]
1 | COCCCN1CCC(NC(=O)c2cc(Cl)c(N)c3c2OCC3)CC1 [PRUCALOPRIDE] | > 300 | > 30 | > 30 | 14 | > 30 | > 30 | > 30 | > 30 | > 30 | > 30 | > 30 | > 30 | > 30
2 | COc1cc2nc(N(C)CCCNC(=O)C3CCCO3)nc(N)c2cc1OC (stereo not given) [ALFUZOSIN] | > 300 | > 30 | 6.8 | 0.81 | > 30 | > 30 | > 30 | > 30 | > 30 | > 30 | 13 | > 30 | 15
3 | C[C@@H](O)[C@H]1C(=O)N2C(C(=O)O)=C(S[C@@H]3CN[C@H](C(=O)N(C)C)C3)[C@H](C)[C@H]12 [MEROPENEM] | > 300 | > 300 | > 300 | > 300 | > 300 | > 300 | > 10 | > 300 | 33.4 | > 300 | > 300 | > 300 | > 300
4 | Nc1nc(NC2CC2)c2ncn([C@H]3C=C[C@@H](CO)C3)c2n1 [ABACAVIR] | > 300 | > 30 | > 30 | > 30 | > 30 | > 30 | > 30 | > 30 | > 30 | > 30 | > 30 | > 30 | > 30
5 | CN1C(=O)CCS(=O)(=O)C1c1ccc(Cl)cc1 (stereo not given) [CHLORMEZANONE] | > 300 | > 10 | > 10 | > 30 | > 10 | > 10 | > 10 | > 10 | > 10 | > 10 | > 10 | > 30 | > 30
6 | Cc1cn([C@H]2C[C@H](N=[N+]=[N-])[C@@H](CO)O2)c(=O)[nH]c1=O [ZIDOVUDINE] | > 300 | > 30 | > 10 | > 10 | > 30 | > 10 | > 10 | > 10 | > 30 | > 10 | > 10 | > 30 | > 10
7 | CN(C)CCC(c1ccc(Cl)cc1)c1ccccn1 (stereo not given) [CHLORPHENIRAMINE] | > 300 | > 30 | > 10 | > 10 | > 30 | > 10 | > 10 | > 10 | > 30 | 1.46 | 7.7 | > 10 | > 10
8 | CCCSc1ccc2nc(NC(=O)OC)[nH]c2c1 [ALBENDAZOLE] | > 300 | > 10 | > 10 | > 10 | > 10 | > 10 | > 10 | > 10 | > 30 | > 30 | > 30 | > 30 | > 30
9 | N[C@@H]1[C@H]2CN(c3nc4c(cc3F)c(=O)c(C(=O)O)cn4-c3ccc(F)cc3F)C[C@@H]12 [TROVAFLOXACIN] | > 300 | > 30 | > 30 | > 30 | > 30 | > 30 | > 30 | > 30 | > 30 | > 30 | > 30 | > 30 | > 30
10 | c1cnc(N2CCN(Cc3ccc4c(c3)OCO4)CC2)nc1 [PIRIBEDIL] | 130 | > 30 | 0.059 | 0.96 | > 30 | > 30 | > 30 | > 30 | > 30 | > 30 | 18 | > 30 | 7.1

— ChEMBL document CHEMBL5291721, “A preclinical secondary pharmacology resource illuminates target-adverse drug reaction associations of marketed drugs” (Nat Commun, 2023)
